In patent US20240034744A1, “COMPLEX COMPOUND OF COMPRISING THE CITRATE AND IRON ION AND THE FOOD COMPOSITION COMPRISING THE SAME” (priority 2022, published 2024):

Assay: Measurement of solubility in water
Type: physicochemical
Conditions: 200 g/L in 15° C. water

iron-citrate complex compound [Example 1]
proportion of the complex compound dissolved: 100% | time for dissolution (100% dissolved): ≤ 5 min

iron-citrate complex compound [Comparative Example 1]
proportion of the complex compound dissolved: 10% | proportion of the complex compound precipitated: 90%
